From a melting point compilation (Tetko et al.; mined from patent text by program, amines drawn as free bases though some values may be those of a salt) come the findings set out here.

For the compound `c1ccc(OCCSCc2nnc(-c3ccc(OCCCCN4CCOCC4)cc3)o2)cc1`, the melting point – broadly, the temperature, or range, at which the solid turns liquid – is 64 to 67 °C.

For `CC1CCc2c(N3CCN(S(=O)(=O)C(F)(F)F)CC3)c(Cl)cc3c(=O)c(C(=O)O)cn1c23` (stereo unspecified), the melting point is 232 to 235 °C. Next, `Clc1nc2ncnn2c(NC2CCCC2)c1-c1ccsc1`: 78 °C; `CCC1=Cc2cc3c(cc2C(c2ccc([N+](=O)[O-])cc2)=NN1C(C)=O)OCO3`: 132 to 134 °C; `C[C@@H]1Cc2cc([N+](=O)[O-])ccc2N1`: 63 to 64 °C. As for `CC(C)c1noc2c1C(=O)N(C(C)(C)C)C2=O`, the figure is 60 to 62 °C; as for `CC(=O)NC1(c2ccc(CN3CCN(c4nccs4)CC3)cc2)CC1`, 184 to 185 °C; as for `CCN1C(=O)C(=O)C(C)=C(C#N)C1=O`, 159 to 160 °C. As for `Ic1cnc(-c2ccccn2)[nH]1`, the figure is 175 to 179 °C. As to `CC12CCC3C(CCC4C(O)CCCC43C)C1CCC2OC1CCCCO1` (stereo unspecified), the melting point lay within 167 to 170 °C. As for `CC(C)(C)OC(=O)NC(Cc1c[nH]c2ccccc12)C(=O)OCCl` (stereo unspecified), the figure is 155 to 157 °C. `CCOC(=O)c1cc(C)n(-c2cccc(Cl)c2)c1-c1ccccc1` returned a melting point of 93.2 to 94.6 °C. Next, `COc1cc2[nH]c(C)c(C(=O)C(=O)N3CCC(Oc4ccc(C(F)(F)F)cc4)CC3)c2cc1OC`: 211 to 213 °C.

On to `CC(C(=O)Oc1ccc([N+](=O)[O-])cc1)c1ccccc1` (stereo unspecified), for which the melting point was 55 to 56.5 °C. As for `CCC(=O)N[C@@H](C)C(=O)N1CCC[C@H]1C(=O)NC1CCCCCC1`, the figure is 155 to 156 °C. As for `CCOC(=O)CC(=O)c1cc2cc(F)c(F)cc2nc1Cl`, the figure is 107 °C. As for `O=C(O)CCNC(=O)c1ccccc1SSc1ccccc1C(=O)NCCC(=O)O`, the figure is 201 to 203 °C. Take `CCOC(=O)C(=CNC1CC1)C(=O)c1cc(F)c(F)c(C)c1F`: the melting point lay in the range of 73 to 75 °C. For the compound `COC(=O)CCNc1cc(Oc2ccc(Cl)cc2Cl)ccc1[N+](=O)[O-]`, the melting point is 115 °C. As for `Cc1cc(/C=C/C(=O)O)c(C)c([N+](=O)[O-])c1`, the figure is 228 °C. For the compound `O=C1CCn2c(nc3ccccc32)N1`, the melting point was more than 260 °C. As for `CCOC(=O)c1cc2c3ccccc3ncn2c1`, the figure is 138 to 139 °C; as for `O=C(O)C1=CSC2C(=Cc3cc4c(s3)CCSC4)C(=O)N12` (stereo unspecified), more than 250 °C. As for `O=C(O)c1c(Oc2ccc(F)cc2)cccc1Oc1ccc2c(c1)OCO2`, the figure is 164 to 166 °C; as for `O=C(c1cccs1)c1cnn2c(-c3cccc(-n4cccc4)c3)ccnc12`, 211 to 213 °C. As for `CCOC(C#CC(=NC(c1ccccc1)(c1ccccc1)c1ccccc1)C(F)F)OCC`, the figure is 173 to 175 °C; as for `COC(=O)C1=C(c2ccc(OC)cc2)C(c2ccc(OC)cc2)OC1=O` (stereo unspecified), 107 to 109 °C. `O=C1c2ccccc2C(=O)N1CCCOc1ccncc1`: the melting point lay in the range of 81 to 82 °C. As for `O=C(c1ccc(Cc2c(Cl)cc(NN=Cc3ccccc3)cc2Cl)cc1)c1cnc(Cl)c(Cl)c1`, the figure is 173 to 175 °C; as for `CN1CCN(c2ccc(Nc3ncc4ccc(-c5cccc(CN(C)S(C)(=O)=O)c5)n4n3)cc2)CC1`, 229 to 230 °C; as for `NC(=O)NN=Cc1ccc(Oc2ccc3c(c2)CCC3)cc1`, 218 to 220 °C. For `CC1(C)Sc2oc(S(N)(=O)=O)cc2C1=O`, the melting point is 167 to 169 °C. Next, `O=C(NCc1ccc(Cl)cc1)c1cnc2ccc(-c3ccccc3)cc2c1O`: 255 to 257 °C; `N#Cc1ccc(C(=O)OC2CCN(Cc3ccccc3)CC2)cc1`: 110 to 111 °C. For `CCOC(=O)c1cc2n(c1)CNc1ccc(Br)cc1-2`, the melting point was 169 to 171 °C.

`Cc1csc2nc(C(=O)O)cn12` had a melting point of 196 to 197 °C. As for `Nc1ccc(S(=O)(=O)N2CCCC(c3ccc(Cl)c(Cl)c3)=N2)cc1`, the figure is 232 to 234 °C.

On to `COCc1cn(-c2cccc(C(F)(F)F)c2)nc(-c2ccnn2-c2ccccc2)c1=O`, for which the melting point is 137 to 139 °C. Next, `COc1ccc(N=C(C#Cc2ccccc2)N2CCN(Cc3ccc(F)cc3)CC2)cc1`: 98 °C. `Cc1cc(S)n2nc(CC(=O)O)nc2n1` showed a melting point of 253 to 255 °C. Consider `CCCc1c(C(=O)C(C)C)c2ccc(C(N)=O)cc2n1Cc1ccc(Cl)cc1F`, for which the melting point is 200 to 202 °C. As for `CS(=O)(=O)Cc1ccc(Oc2cc(OC3CCOCC3)c3[nH]c(C4=NCC(CC(N)=O)S4)cc3c2)cn1` (stereo unspecified), the figure is 164 to 167 °C; as for `O=Cc1c[nH]c2ccc(Nc3ncnc4cc(-c5ccccc5)sc34)cc12`, 174 to 175 °C. Next, `Cc1ccccc1C(=O)c1c(C)nn(C)c1O`: 82 to 83 °C; `O=C1CC(C(F)(F)F)CC(=O)O1`: 88 to 91 °C; `O=C1CC(=Cc2c[nH]c3ccccc23)C(=O)O1`: 90 to 91 °C. Next, `COCC1CN(c2ccc(C3CCNCC3)cc2)C(=O)O1` (racemic): 161 to 163 °C; `CNC(=O)c1c(NC)ncn1Cc1ccccc1`: 113 to 114 °C. `Cc1cc2c(cc1C)-n1cnnc1C=C(c1ccc(-n3c(C)nc4cnccc43)cc1)N2`: the melting point lay within 302 to 304 °C.

Take `Oc1ncc(-c2ccccc2)s1`: the melting point fell in the range of 202 to 204 °C. As for `CCOc1nc2c(cnn2CC)nc1C(=O)Nc1nccs1`, the figure is 151 to 152 °C; as for `O=C(O)COc1ccc(C(=NO)c2ccccc2F)c(Cl)c1Cl`, 91 to 96 °C; as for `CCc1nc2c(C)cc(C)nc2n1Cc1ccc2c(c1)CCc1ccccc1N2Cc1nnn[nH]1`, 177 to 179 °C. In turn, `Cc1cc(-c2ccc(C(F)(F)F)nc2)nc(-c2ccnc(-c3cccc(S(N)(=O)=O)c3)c2)n1` came in with a melting point of 255 °C. Next, `CC(C)(C)[Si](C)(C)Oc1c(I)cc(Cl)c2cccnc12`: 65 to 67 °C; `CCOC(=O)CCCC1(CCCC(=O)OCC)CC(=O)c2ccc(O)cc2O1`: 108 to 110 °C; `CCC1CS(=O)(=O)c2ccccc2C2(c3ccccc3)OC12` (stereo unspecified): 185 to 186 °C.

`COc1ccc([C@H]2CC[C@H](c3ccc(OC)c(OC)c3)S2)cc1OC` (relative stereo) showed a melting point of 103 to 105 °C.

`Cc1cccc(-c2n[nH]cc2Cl)c1`: the melting point turned out to be 109 °C. Next, `COC(=O)c1sc2c(c1OC(C)C)CN(C(=O)OC(C)(C)C)CC2`: 76 to 81 °C; `COc1ccc(OCC2CCC(CBr)CC2)c(Cl)c1` (stereo unspecified): 74 to 78 °C; `Cc1nc(N2CCN(Cc3ccc(F)cc3)C2=O)sc1C(=O)NCc1ccccc1`: 192 to 193 °C. Next, `Cc1nc2ccccc2c2ccc(F)cc12`: 92 to 93 °C; `CCOC(=O)c1cnn(C)c1C(=O)Nc1ccn2nc(-c3ccnc(F)c3)nc2c1`: 220 to 230 °C. Next, `O=C(Nc1ccccc1N1CCc2ccccc21)C1CC1`: 83 to 85 °C; `CCNC(=O)Nc1ccc(-c2cc3c(Nc4cccc(Cl)c4)ncnc3[nH]2)cc1`: more than 290 °C; `CC(=O)NC12Oc3cc(C(C)C)ccc3C1(O)C(=O)c1c(N)cccc12` (stereo unspecified): 278 to 280 °C. Take `Nc1cc(=O)n(Cc2ccc(Br)cc2)[nH]1`: the melting point came out at 139 °C.

`COc1cc(CO)cnc1Cl` came in with a melting point of 60 to 63 °C.

For the compound `Cc1cccc(C(=O)Cc2ccnc(NC(=O)c3ccccc3)c2)c1`, the melting point was 67 to 69 °C.

The compound `CC(CCC(=O)O)C(=O)NC1(C(=O)O)CCCC1` (stereo unspecified) displayed a melting point of 170 to 172 °C. As for `COC(=O)c1ccccc1Oc1ccccc1[N+](=O)[O-]`, the figure is 49 to 50 °C; as for `CC(C)(C)c1cc(CCc2ccccc2NC(=O)NCCc2ccc(Cl)cc2)cc(C(C)(C)C)c1O`, 173 to 174 °C; as for `CN1CCC(Oc2ccccn2)(c2ccccc2)CC1`, 95 to 96 °C.

Compound `CCOC(=O)c1nc2cc(Br)ccn2n1` yielded a melting point of 158 to 160 °C.

In turn, `COc1ccc(S(=O)(=O)c2c(Br)cc(CC(=O)O)cc2Br)cc1C1CCCCC1` returned a melting point of 146 to 150 °C. As for `CC(C)(C)OC(=O)C(CNC(=O)c1ccc(O)cc1)NC(=O)OCc1ccccc1` (stereo unspecified), the figure is 69 °C; as for `Fc1ccc(F)c(-c2nc(-c3ccccn3)no2)c1`, 120 to 126 °C. As to `FC(F)C(F)(F)Oc1cccc(Nc2nccc(-c3ccncc3)n2)c1`, the melting point lay within 191 to 192 °C. As for `OC(Cn1ncc2c(Br)ncnc21)c1ccccc1` (stereo unspecified), the figure is 146 to 147 °C; as for `CCc1[nH]nc2c1C(=O)c1c(NC(N)=O)cccc1-2`, more than 250 °C.

The compound `Cc1cc(C#N)c(C)c(C(=O)Nc2ccc(F)c(C)n2)n1` displayed a melting point of 201 °C. Next, `CN(Cc1ccc(NC(=O)C2=Cc3cc(-c4ccc5c(c4)OCO5)ccc3SCC2)cc1)C1CCOCC1`: 193 to 194 °C; `COC(=O)c1cccc(-c2ccc(OC)c(OC3CCCC3)c2)c1`: 85 to 87 °C. Next, `CSc1ccc(C(=O)N2CC2C#N)nn1` (stereo unspecified): 97 to 100 °C; `CC(C)c1nc(COCc2ccccc2)n(Cc2cnc3ccccc3c2)c1Sc1cc(Cl)cc(Cl)c1`: 95 to 98 °C; `CCCCCCCN=C1SC(=CC(=O)O)C(=O)N1CCCCCCC`: 80 to 81 °C. As for `CN1Cc2c(-c3nc(C4CC4)no3)ncn2-c2ccccc2C1=O`, the figure is 202 to 203 °C.

On to `CCOC(=O)c1cn(-c2cnc(Cl)c(N)c2)c2c(Cl)c(F)c(F)cc2c1=O`, for which the melting point fell in the range of 233 to 236 °C. Next, `CCCCc1ncc(C=O)n1Cc1ccc(C(=O)O)c2ccccc12`: 182 °C; `CN1CCN(c2cccc3c2C[C@H](NC(=O)c2ccc(Cl)cc2)CC3)CC1`: 204 to 205 °C.
